Results: US20050250945A1, “Triazine compounds as inhibitors of bacterial type III protein secretion systems” (priority 2004, published 2005)

What was measured:
Format in all cases: cell-based
[1] = test system: SPI1 type III protein secretion system (SopE‘-’Bla secretion); assay: Primary assay: Type III protein secretion of the chimeric SopE‘-’Bla polypeptide (nitrocefin hydrolysis); conditions: Salmonella enterica, read-out: SopE IC50(uM)
Excerpt: Primary assay: Type III protein secretion of the chimeric SopE‘-’Bla polypeptide by Salmonella enterica. This procedure is a cell-based assay that measures the type III-dependent secretion by Salmonella enterica of a plasmid-encoded chimeric polypeptide whose synthesis can be regulated, and which is endowed with an enzymatic activity that can be monitored colorimetrically by hydrolysis of a substrate that is unable to penetrate into the bacterial cytoplasm within the time constraints of the reaction. Thus, the colorimetric reaction is not influenced by SopE‘-’Bla polypeptide in the bacterial cytoplasm. Instead, it effectively measures the amount of polypeptide that has been secreted from the S. enterica cytoplasm to the extracellular medium via type III system protein secretion.
The SopE‘-’Bla recombinant polypeptide consists of two functionally distinct domains spliced together. The N-terminus domain is encoded by a polynucleotide region specifying the signal for type III secretion of the SopE polypeptide of S. enterica, an effector of the SPI1 type III protein secretion system. The C-terminus domain of SopE‘-’Bla consists of a 263 amino acid peptide sequence that corresponds to the TEM-1 β-lactamase expressed by plasmid pBR322 but without its N-terminal signal sequence. The TEM-1 β-lactamase part of the SopE‘-’Bla chimeric polypeptide is used as a reporter enzyme. It is capable of hydrolyzing nitrocefin resulting in a product whose accumulation can be monitored by colorimetric detection. The secretion of the SopE‘—’Bla chimeric polypeptide from the cytoplasm to the extracellular medium is dependent on type III protein secretion.
For this procedure, cells grown under conditions known to favor a functional SPI1 secretion system are induced for expression of the SopE‘-’Bla protein and grown either in the presence or in the absence of putative inhibitors for determined time. Nitrocefin is then added to the various cultures and its hydrolysis are used for quantitation. An inhibitor of Type III protein secretion is generally a compound that reduces the signal of the enzymatic reaction by decreasing the amount of SopE‘-’Bla secreted into the extracellular medium.

[2] = test system: SPI1 type III protein secretion system (SipB secretion); assay: Secondary assay: Type III-dependent protein secretion of the SipB polypeptide (immunoblot); conditions: Salmonella enterica, read-out: SipB IC50(uM)
Protocol: Secondary assay: Type III-dependent protein secretion of the SipB polypeptide by S. enterica. The SipB protein of S. enterica is another effector of the SPI1 type III protein secretion system from S. enterica. In this cell-based procedure, the Type III-dependent secretion of SipB from the bacterial cytoplasm to the extracellular medium was measured through its reactivity with a cognate mouse monoclonal.
Salmonella enterica cells growing either in the presence or in the absence of inhibitors are induced for the production of SipB. Following an established period of growth the cells are sedimented and the amount of SipB present in the supernatant is quantified with a scanning imager following application of immunoblot techniques. Detection may employ an anti-SipB mouse monoclonal antibody (e.g., obtained from Jorge Galan, SUNY at Stony Brook, N.Y.) followed by treatment with commercially available sheep anti-mouse polyclonal antibody conjugated with horseradish peroxidase. Thereafter the membrane is treated with a peroxidase chemiluminescent substrate and exposed to film for an appropriate exposure time. Inhibition may be measured relative to untreated controls.

[3] = test system: type III protein secretion system of P. aeruginosa PA103 (ExoU secretion); assay: Tertiary assay: Type III-dependent secretion of ExoU by P. aeruginosa PA103 (SDS-PAGE band quantitation); conditions: Pseudomonas aeruginosa; P. aeruginosa PA103, ExoU secreted into extracellular medium
Excerpt: Tertiary assay: Inhibition of Type III protein secretion of effectors from a Pseudomonas aeruginosa system. Type III protein secretion is used by P. aeruginosa to secrete several essential virulence determinants. One effector of the type III protein secretion system of P. aeruginosa PA103 is the virulence determinants ExoU.
The amount of Type III-dependent secretion of ExoU by P. aeruginosa PA103 can be determined in a cell-based assay by quantification of the 73.9 kDa ExoU protein secreted into the extracellular medium. Such quantitation can be achieved by growing strain PA103 in a deferrated medium in the presence of nitrilotriacetic acid (an inducer of Type III protein secretion in P. aeruginosa) and either in the presence or absence of putative inhibitors. After a prolonged growth period, the cells are sedimented and the supernatants concentrated by ammonium sulfate precipitation. The proteins in the resuspended pellets are separated by electrophoresis on SDS-polyacrylamide gels. After staining gels with Colloidal Blue™, the 73.9 kDa ExoU band is quantitated by scanning through an imager. The effects of inhibitors on the intensity of the ExoU band may be measured relative to that of untreated controls.

Compound | IC50 [1] | IC50 [2] | IC50 [3]
O=C(O)C(CSCc1ccccc1)Nc1nc(-c2ccc(-c3ccccc3)cc2)nc(N2CCN(c3ccccn3)CC2)n1 (stereo in doubt) [Compound 2, (S)-3-Benzylsulfanyl-2-[4-biphenyl-4-yl-6-(4-pyridin-2-yl-piperazin-1-yl)-[1,3,5]triazin-2-yl-amino]propionic acid] | 6.4 µM | 36.1 µM | > 100 µM
O=C(O)[C@H](COCc1ccccc1)Nc1nc(-c2ccc3ccccc3c2)nc(N2CCN(c3ccccn3)CC2)n1 [Compound 1, (S)-3-Benzyloxy-2-[4-naphthalen-2-yl-6-(4-pyridin-2-yl-piperazin-1-yl)-[1,3,5]triazin-2-yl-amino]propionic acid] | 12.4 µM | 64.8 µM | > 100 µM
O=C(O)[C@H](C[S+]([O-])Cc1ccccc1)Nc1nc(-c2ccc(C(F)(F)F)cc2)nc(N2CCc3ccccc3C2)n1 (stereo partly drawn) [Compound 3, (R)-2-[4-(3,4-Dihydro-1H-isoquinolin-2-yl)-6-(4-trifluoromethylphenyl)-[1,3,5]triazin-2-yl-amino]-3-phenylmethanesulfinylpropionic acid] | 8.5 µM | 12.5 µM | > 100 µM
O=C(O)C(Cc1ccc(Cl)cc1)Nc1nc(-c2ccc(C(F)(F)F)cc2)nc(N2CCN(c3ccccn3)CC2)n1 (stereo not drawn) [Compound 4, 3-(4-Chlorophenyl)-2-[4-(4-pyridin-2-yl-piperazin-1-yl)-6-(4-trifluoromethylphenyl)[1,3,5]triazin-2-yl-amino]propionic acid] | 8.5 µM | 46.4 µM | > 100 µM
O=C(O)C(Cc1ccc(-c2ccc(C(F)(F)F)cc2)cc1)Nc1nc(-c2ccc(C(F)(F)F)cc2)nc(N2CCN(c3ccccn3)CC2)n1 (stereo not drawn) [Compound 5, 2-[4-(4-Pyridin-2-yl-piperazin-1-yl)-6-(4-trifluoromethylphenyl)[1,3,5]triazin-2-yl-amino]-3-(4′-trifluoromethylbiphenyl-4-yl)propionic acid] | 10.2 µM | 18.2 µM | > 100 µM
O=C(O)C(Cc1ccc(Cl)cc1)Nc1nc(-c2ccc(-c3ccccc3)cc2)nc(N2CCN(c3ccccn3)CC2)n1 (stereo not drawn) [Compound 6, 2-[4-Biphenyl-4-yl-6-(4-pyridin-2-yl-piperazin-1-yl)[1,3,5]triazin-2-yl-amino]-3-(4-chlorophenyl)propionic acid] | 5.3 µM | 28 µM | > 100 µM
O=C(O)C(Cc1ccc(-c2ccc(-c3ccccc3)cc2)cc1)Nc1nc(-c2ccc(-c3ccccc3)cc2)nc(N2CCN(c3ccccn3)CC2)n1 (stereo not drawn) [Compound 7, 2-[4-Biphenyl-4-yl-6-(4-pyridin-2-yl-piperazin-1-yl)[1,3,5]triazin-2-yl-amino]-3[1,1′;4′,1″]terphenyl-4-yl-propionic acid] | 12.6 µM | 17.5 µM | > 100 µM
O=C(O)[C@H](C[S+]([O-])Cc1ccccc1)Nc1nc(-c2ccc(-c3ccccc3)cc2)nc(N2CCN(c3ccccn3)CC2)n1 (stereo partly drawn) [Compound 8, (R)-2-[4-Biphenyl-4-yl-6-(4-pyridin-2-yl-piperazin-1-yl)[1,3,5]triazin-2-yl-amino]-3-phenylmethanesulfinylpropionic acid] | 14.4 µM | 34 µM | > 100 µM
O=C(O)[C@H](C[S+]([O-])Cc1ccccc1)Nc1nc(-c2ccc(F)cc2)nc(N2CCc3ccccc3C2)n1 (stereo partly drawn) [Compound 9, (R)-2-[4-(3,4-Dihydro-1H-isoquinolin-2-yl)-6-(4-fluorophenyl)[1,3,5]triazin-2-yl-amino]-3-phenylmethanesulfinylpropionic acid] | 42.6 µM | > 100 µM | –
O=C(O)[C@H](C[S+]([O-])Cc1ccccc1)Nc1nc(-c2ccc(C(F)(F)F)cc2)nc(N2CCN(c3ccccn3)CC2)n1 (stereo partly drawn) [Compound 10, (R)-3-Phenylmethanesulfinyl-2-[4-(4-pyridin-2-yl-piperazin-1-yl)-6-(4-trifluoromethylphenyl)[1,3,5]triazin-2-yl-amino]propionic acid] | 50.1 µM | > 100 µM | > 100 µM
O=C(O)[C@H](CS(=O)(=O)Cc1ccccc1)Nc1nc(-c2ccc(F)cc2)nc(N2CCc3ccccc3C2)n1 [Compound 11, (R)-2-[4-(3,4-Dihydro-1H-isoquinolin-2-yl)-6-(4-fluorophenyl)[1,3,5]triazin-2yl-amino]-3-phenyl-methanesulfonyl propionic acid] | 86 µM | > 100 µM | –
O=C(O)[C@H](CSCc1ccccc1)Nc1nc(Nc2ccc(C(F)(F)F)cc2)nc(-c2ccc(Oc3ccccc3)cc2)n1 [Compound 12, (R)-3-Benzylsulfanyl-2-[4-(4-phenoxyphenyl)-6-(4-trifluoromethylphenylamino)[1,3,5]triazin-2-yl-amino]propionic acid] | 1.1 µM | – | > 100 µM
O=C(O)[C@H](CSCc1ccccc1)Nc1nc(Nc2ccc(C(F)(F)F)cc2)nc(-c2ccc3ccccc3c2)n1 [Compound 20, (R)-3-Benzylsulfanyl-2-[4-naphthalen-2-yl-6-(4-trifluoromethylphenylamino)-[1,3,5]triazin-2-yl-amino]propionic acid] | 3.3 µM | – | > 100 µM
O=C(O)[C@H](CSCc1ccccc1)Nc1nc(Nc2ccc(C(F)(F)F)cc2)nc(-c2ccc3c(c2)OCO3)n1 [Compound 26, (R)-2-[4-Benzo[1,3]dioxol-5-yl-6-(4-trifluoromethylphenylamino)[1,3,5]triazin-2-yl-amino]-3-benzylsulfanylpropionic acid] | 5.8 µM | 28.1 µM | 52.1 µM
O=C(O)C(Cc1ccc(Cl)cc1)Nc1nc(Nc2ccc(C(F)(F)F)cc2)nc(-c2ccc(F)cc2)n1 (stereo not drawn) [Compound 27, 3-(4-Chlorophenyl)-2-[4-(4-fluorophenyl)-6-(4-trifluoromethylphenylamino)-[1,3,5]triazin-2-yl-amino]propionic acid] | 6.1 µM | > 100 µM | –
O=C(O)[C@H](CSCc1ccccc1)Nc1nc(Nc2ccc(C(F)(F)F)cc2)nc(-c2ccccc2F)n1 [Compound 28, (R)-3-Benzylsulfanyl-2-[4-(2-fluorophenyl)-6-(4-trifluoromethylphenylamino)-[1,3,5]triazin-2-yl-amino]propionic acid] | 6.7 µM | – | > 100 µM
O=C(O)[C@H](CSCc1ccccc1)Nc1nc(Nc2ccc(C(F)(F)F)cc2)nc(-c2cc(F)cc(F)c2)n1 [Compound 29, (R)-3-Benzylsulfanyl-2-[4-(3,5-difluorophenyl)-6-(4-trifluoromethylphenylamino)[1,3,5]triazin-2-yl-amino]propionic acid] | 7.4 µM | – | –
CN(C)c1ccc(-c2nc(Nc3ccc(C(F)(F)F)cc3)nc(N[C@@H](CSCc3ccccc3)C(=O)O)n2)cc1 [Compound 30, (R)-3-Benzylsulfanyl-2-[4-(4-dimethylaminophenyl)-6-(4-trifluoromethyl-phenylamino)[1,3,5)triazin-2-yl-amino]propionic acid] | 8.5 µM | – | –
O=C(O)[C@H](CSCc1ccccc1)Nc1nc(Nc2ccc(C(F)(F)F)cc2)nc(-c2ccc(O)cc2)n1 [Compound 31, (R)-3-Benzylsulfanyl-2-[4-(4-hydroxyphenyl)-6-(4-trifluoromethylphenylamino)-[1,3,5]triazin-2-yl-amino]propionic acid] | 9.1 µM | – | –
